Legend:
NCK2422 (ΔLBA0725) = assay: Phenotypic growth analysis of deletion mutant (PTS EIICBA); type: cell-based, Lactobacillus acidophilus; conditions: for growth of the ΔLBA0725 mutant (inactive PTS EIICBA): compared with background Δupp strain
Method: (§1) Phenotypic growth assays were performed using 1% (v/v) overnight cultures of L. acidophilus strains (Table 2) and other Lactobacillus species (Table 3) grown on SDM supplemented with 1% (w/v) glucose to inoculate 200 μL of SDM supplemented with 1% (w/v) of the examined carbohydrate (0.5% in the case of esculin) in 96-well microplate wells (Corning Costar, Corning, N.Y., USA) in duplicate or triplicate wells, respectively. The microplates were sealed with clear adhesive film, incubated at 37° C. in a Fluostar Optima microplate reader (BMG Labtech, Cary, N.C., USA), and the cell optical density (OD600) was monitored for 30 hours.
(§2) Construction of gene deletion mutants. The L. acidophilus NCFM genes LBA0225 and LBA0726, both encoding P-Bgl of glycoside hydrolase family 1 (GH1) enzymes in addition to the LBA0227 and LBA0725 genes encoding an EIIC and an EIICBA components of two PTS systems, respectively, were deleted using the upp-based counterselectable gene replacement system. Briefly, in-frame deletions were constructed by amplifying 650-750 bp of the up- and downstream flanking regions of the deletion targets with two primer pairs (e.g., LBA0225A/LBA0225B and LBA0225C/LBA0225D; Table 4). The resulting purified products were joined by splicing using overlap extension PCR (SOE-PCR63) and amplified to establish the deletion alleles. The SOE-PCR products, that include flanking restriction enzyme sites, were cloned within the BamHI and SacI/EcoRI sites of the pTRK935 integration vector and transformed into E. coli EC101. The resulting recombinant plasmids (pTRK1113-6) were confirmed by DNA sequencing and electroporated into L. acidophilus NCK1910 (Table 2) that contains the pTRK669 helper plasmid, and the recovery of the single- and double-crossover recombinants was performed as previously described. Recombinants carrying the new gene deletion alleles were isolated by colony PCR using primer pairs denoted up/down (e.g., LBA0225up/LBA0225down), which anneal to the flanking regions of the amplicons. Sequence integrity and in-frame deletions were verified by DNA sequencing employing the aforementioned primer pairs and primer denoted mid (e.g., LBA0225mid). The mutations were in-frame deletions of 90-96% of the coding regions.
To establish the functional significance of these two loci, single deletions of each PTS EII and P-Bgl gene, and a double deletion of both P-Bgl genes were constructed using the upp-based counter-selectable gene replacement system (Table 2) and the growth phenotypes of the mutant strains were analyzed (FIG. 3). Phenotypic growth analyses of deletion mutants of EII PTS transporters (FIGS. 3A, 3C, 3E, 3G, and 3I) and phospho-β-glucosidase (FIGS. 3B, 3D, 3F, 3H, and 3J) on the β-glucosides esculin, salicin, amygdalin and the disaccharides gentiobiose and cellobiose. The background Aupp strain is shown as a grey fill graph and the growth of the mutant strains is shown as: PTS EIIC (LBA0227, pink triangle), the phospho-β-glucosidase (LBA0225, light blue triangles), the PTS EIICBA (LBA0725, yellow squares), the second phospho-β-glucosidase (LBA0726, lilac squares) and the double phospho-β-glucosidase mutant (LBA0225/LBA0726, black stars). The color scheme is consistent with that used for the gene loci in FIG. 2.

L. johnsonii ATCC 33200 = assay: Phenotypic growth assay (OD600); type: cell-based; conditions: SDM + 1% (w/v) carbohydrate (0.5% esculin), 37° C., 30 hours; corrected to medium without carbohydrate
Method: as §1

L. gasseri ATCC 33323 = assay: Phenotypic growth assay (OD600); type: cell-based; conditions: SDM + 1% (w/v) carbohydrate (0.5% esculin), 37° C., 30 hours; corrected to medium without carbohydrate
Method: as §1

[1] = tested on: L. plantarum sp. plantarum ATCC 14917, LA70; assay: Phenotypic growth assay (OD600); type: cell-based; conditions: SDM + 1% (w/v) carbohydrate (0.5% esculin), 37° C., 30 hours; corrected to medium without carbohydrate
Method: as §1

L. fermentum ATCC 14931 = assay: Phenotypic growth assay (OD600); type: cell-based; conditions: SDM + 1% (w/v) carbohydrate (0.5% esculin), 37° C., 30 hours; corrected to medium without carbohydrate
Method: as §1

[2] = tested on: L. jensenii ATCC 25258, 62G, DSM 20557; assay: Phenotypic growth assay (OD600); type: cell-based; conditions: SDM + 1% (w/v) carbohydrate (0.5% esculin), 37° C., 30 hours; corrected to medium without carbohydrate
Method: as §1

L. acidophilus NCFM = assay: Plant glycoside uptake and metabolite analysis of L. acidophilus NCFM culture supernatants by UHPLC-DAD-Q-TOF-MS; type: cell-based, Lactobacillus acidophilus; conditions: for aglycone / main metabolite identified in culture supernatant: L. acidophilus NCFM growing on the glycoside, up to 24 h; for order of depletion from equimolar mixture of salicin, esculin and amygdalin: culture supernatants, 24 hours growth; for Catabolism based on MS: qualitative: depletion of the plant glycoside and/or appearance of its metabolites
Method: For initial growth and gene expression studies, L. acidophilus NCFM was propagated three times in semi-defined medium (SDM) supplemented with either 1% or 0,5% (w/v) of the plant glycoside or carbohydrate (Table 1). For the RNA-seq analysis, cells were harvested by centrifugation (3,220×10 min, 25° C.) in the mid-exponential phase (OD600=0.6-0.8) and stored at −80° C. for subsequent RNA isolation. For the mass spectrometry metabolite analyses, 200 μt samples were taken at 0, 3, 6, 9, 12, and 24 hours of growth; cells were removed by centrifugation; and supernatants were stored at −80° C. for further analysis.
Analysis of plant glycoside uptake from L. acidophilus NCFM culture supernatants using mass spectrometry. The supernatants of L. acidophilus NCFM cultures grown on amygdalin, arbutin, esculin or salicin as carbon sources were analyzed during 24 hours by ultra-high performance liquid chromatography-diode array detection-quadruple time of flight mass spectrometry (UHPLC-DAD-Q-TOF-MS). Samples were diluted 1:20 (v/v) with methanol and an injection volume of […] was used. Separation was carried out on an Agilent Poroshell 120 phenyl-hexyl column (2.1×150 mm, 2.7 μm) using the Agilent Infinity 1290 UHPLC system (Agilent Technologies, Santa Clara, Calif., USA) equipped with a UV/vis spectrum diode array detector. Separation was performed at 0.35 mL min-1., 60° C. with a linear gradient consisting of water (A) and acetonitrile (B) both buffered with 20 mM formic acid, starting at 10% B and increased to 100% in 15 min where it was held for 2 min, returned to 10% in 0.1 min and kept for 3 min. MS detection was performed on an Agilent 6550 iFunnel QTOF MS equipped with Agilent Dual Jet Stream electrospray ion source with the drying gas temperature of 160° C. and gas flow of 13 L min^−1, whereas the sheath gas temperature was 300° C. and flow was 16 L min-1. Ionization was conducted in ESI-mode with capillary voltage set to 4000 V and nozzle voltage to 500 V. Mass spectra were recorded as centroid data for m/z 85-1700 in MS mode with an acquisition rate of 10 spectra s^−1. To avoid carry-over, the needle seat was back-flushed for 15 s at 4 mL min-1 with each of: i) isopropanol: 0.2% ammonium hydroxide (w/v) in water (1:1 v/v); ii) acetonitrile with 2% formic acid (w/v); iii) water with 2% formic acid. Data was processed with the Agilent Mass Hunter Qualitative Analysis B.07.00 software package (Agilent Technologies) and molar concentrations were obtained from standard curves of the plant glycosides and their main metabolites. Targeted compound searches were performed using lists of previously identified compounds plus standard chemical modifications.

NCK2418 (ΔLBA0227) = assay: Phenotypic growth analysis of deletion mutant (PTS EIIC); type: cell-based, Lactobacillus acidophilus; conditions: compared with background Δupp strain
Method: as §1, §2
To establish the functional significance of these two loci, single deletions of each PTS EII and P-Bgl gene, and a double deletion of both P-Bgl genes were constructed using the upp-based counter-selectable gene replacement system (Table 2) and the growth phenotypes of the mutant strains were analyzed (FIG. 3). […]

Row | SMILES | reduction of growth on inactivation of the EIICBA (LBA0725) (NCK2422 (ΔLBA0725)) | growth of the ΔLBA0725 mutant (inactive PTS EIICBA) (NCK2422 (ΔLBA0725)) | Growth (OD600 max class) of L. johnsonii ATCC 33200 (L. johnsonii ATCC 33200) | Growth (OD600 max class) of L. gasseri ATCC 33323 (L. gasseri ATCC 33323) | Growth (OD600 max class) of L. plantarum sp. plantarum ATCC 14917, LA70 [1] | Growth (OD600 max class) of L. fermentum ATCC 14931 (L. fermentum ATCC 14931) | Growth (OD600 max class) of L. jensenii ATCC 25258, 62G, DSM 20557 [2] | aglycone / main metabolite identified in culture supernatant (L. acidophilus NCFM) | order of depletion from equimolar mixture of salicin, esculin and amygdalin (L. acidophilus NCFM) | fraction of the initial glycoside utilized (L. acidophilus NCFM; during 24 hours growth, single carbon source) | Catabolism based on MS (L. acidophilus NCFM; growth concentration 1% (w/v)) | growth of the ΔLBA0227 mutant (inactive EIIC) (NCK2418 (ΔLBA0227)) | Catabolism based on MS (L. acidophilus NCFM; growth concentration 0.5% (w/v))
1 | N#C[C@H](O[C@@H]1O[C@H](CO[C@@H]2O[C@H](CO)[C@@H](O)[C@H](O)[C@H]2O)[C@@H](O)[C@H](O)[C@H]1O)c1ccccc1 [Amygdalin] | about 50% | severely reduced | − (“−” signifies OD600 max < 0.1.) | − (“−” signifies OD600 max < 0.1.) | +++ (“+++” signifies OD600 max > 0.6.) | − (“−” signifies OD600 max < 0.1.) | + (“+” signifies 0.3 > OD600 max > 0.1.) | benzaldehyde | significant amounts of amygdalin persisted after 24 hours | about a third | Yes | abolished | 
2 | O=c1ccc2cc(O[C@@H]3O[C@H](CO)[C@@H](O)[C@H](O)[C@H]3O)c(O)cc2o1 [Esculin] |  | abolished | − (“−” signifies OD600 max < 0.1.) | ++ (“++” signifies 0.6 > OD600 max > 0.3.) | ++ (“++” signifies 0.6 > OD600 max > 0.3.) | − (“−” signifies OD600 max < 0.1.) | ++ (“++” signifies 0.6 > OD600 max > 0.3.) | esculetin |  |  |  | invariant | Yes
3 | OCc1ccccc1O[C@@H]1O[C@H](CO)[C@@H](O)[C@H](O)[C@H]1O [Salicin] |  | abolished | + (“+” signifies 0.3 > OD600 max > 0.1.) | ++ (“++” signifies 0.6 > OD600 max > 0.3.) | +++ (“+++” signifies OD600 max > 0.6.) | − (“−” signifies OD600 max < 0.1.) | ++ (“++” signifies 0.6 > OD600 max > 0.3.) | salicyl alcohol | first compound to be fully depleted |  | Yes | invariant | 

From patent publication US20200222474A1, “COMPOSITIONS AND METHODS FOR INCREASING PHYTOCHEMICAL BIOAVAILABLITY AND BIOACTIVITY” (North Carolina State University, priority 2017, published 2020)
